Experimental findings from publication PMC8333425, “Discovery of a dual Ras and ARF6 inhibitor from a GPCR endocytosis screen” (Nature Communications, 2021) are described below.

One data set relates to A549 cells. Nature of the data set: Cell viability assay (MTT), A549. It counts as cell-based, human. As to the method:
MDA-MB-231 breast cancer cells and A549 lung carcinomas (1500 cells in 150 μl/well) were seeded overnight on a clear 96-well plate. Twenty-four hours later, the cells were treated with 0.1% DMSO, or different concentrations of Rasarfin (as indicated), or 10 µM of 21.4, 21.8 (MDA-MB-231 breast cancer cells) or Doxorubicin for the indicated times at 37 °C. At each time point, 10 μl of 5 mg/ml MTT was added to each well and the plates were incubated for an additional 4 h at 37 °C. The absorbance at 590 nm was measured by plate reader. Experiments were done in triplicate and repeated three times.

The target in data set [1] is T1, K-Ras Y32A, Y40A, Y32A/Y40A (Homo sapiens, UniProt P01116, Y40A).
T1 construct: expressed in transfected cells; host or cells: HEK293SL
Kind of data set: Ras BRET sensor in cells overexpressing K-Ras mutants (Y32A, Y40A, Y32A/Y40A) and AT1R. The data set is classed as cell-based. Conditions: Rasarfin 50 μM, K-Ras Y40A. The source says:
(§1) Because Tyr32 and Tyr40, located on the switch I domain of Ras, are critical for stabilizing Rasarfin binding through interactions with both the chlorine and isopropyl moiety (Fig. 7a, c), we reasoned that substituting them for Ala residues would negatively impact Rasarfin’s inhibitory action on Ras. […] Because we wanted to assess the inhibitory action of Rasarfin over different Ras subtypes, we mutated the two tyrosine residues to an alanine in K-Ras (Y32A, Y40A, and Y32A/Y40A mutants) within the same Rasarfin binding site found in H-Ras (Lys^5-Thr^74). This domain and residues are perfectly conserved among the Ras family members[44],[45]. WT K-Ras and K-Ras mutants were overexpressed along with AT1R in cells and AngII-mediated activation of Ras was assessed using the Ras BRET sensor (Supplementary Fig. 11a).
(§2) HEK293SL cells were seeded at a density of 7.5 × 10^5 cells per 100-mm dish and 24 h later, transiently transfected as such. For receptor internalization experiments, cells were transfected with 0.12 μg AT1R-RlucII, B2R-RlucII, or β2AR-RlucII and 0.48 μg of either rGFP-CAAX (to assess removal from the PM) or rGFP-FYVE (to assess accumulation in the endosomes). For β-arrestin recruitment assays, cells were transfected with 0.48 μg of receptor-YFP along with 0.12 μg of β-arrestin-RlucII. For β-arrestin/AP-2 binding experiments, cells were transfected with 1 μg Flag-AT1R, 1 μg β2-Adaptin-YFP, and 0.12 μg β-arrestin2-RlucII. For G protein activation, cells were transfected with 3 μg of sp-Flag-AT1R along with either 4.5 μg of the Gαq-polycistronic BRET sensor or 0.24 μg of the Gαi3-RlucII and 0.6 μg of GFP10-Gγ2 and Gβ1 sensors or 0.12 μg PKN-RBD-RlucII and 0.48 μg of rGFP-CAAX. For PKC activation, cells were transfected with 3 μg of sp-Flag-AT1R and 0.18 μg of the PKC sensor. For GTPase activation experiments, cells were transfected with 1 μg Flag-AT1R, 0.48 μg of rGFP-CAAX, and either 0.12 μg of GGA3-PBD-RlucII, PAK-CRIB-RlucII or Raf-RBD-RlucII. For biosensor validation experiments, cells were additionally transfected with 500 ng Flag-K-Ras-WT, Flag-K-Ras-G12V, Flag-K-Ras-SOS-CAAX, HA-ARF6-WT, HA-ARF6-T27N, Myc-Rac1-WT, Myc-Rac1-Q61L or Myc-Rac1-T17N. For PI3K/Akt activation experiments, cells were transfected with 0.48 μg of rGFP-CAAX and 0.12 μg of Akt (PH)-RlucII. After 18 h of transfection, the media was replaced and cells were divided for subsequent experiments. Cells were detached and seeded onto poly-L-ornithine-coated 96-well flat white bottom plates (BrandTech Scientific) at a density of 2.5 × 10^4 cells per well in media. The next day, cells were washed once with Tyrode’s buffer (140 mM NaCl, 2.7 mM KCl, 1 mM CaCl2, 12 mM NaHCO3, 5.6 mM D-glucose, 0.5 mM MgCl2, 0.37 mM NaH2PO4, 25 mM HEPES, pH 7.4) and left in Tyrode’s buffer. For kinetics of β-arrestin recruitment or β-arrestin binding to receptor and AP-2 experiments, cells were serum starved for 30 min, pretreated with 21 (50 µM) or Barbadin (100 µM) for 30 min, stimulated with 100 nM AngII or 1 µM BK and BRET signals were monitored at indicated times using a Victor X Light plate reader (PerkinElmer). Coelenterazine H (final concentration of 5 µM) was added 3–5 min prior to BRET measurements. Filter set was 460/80 nm and 535/30 nm for detecting the RlucII Renilla luciferase (donor) and YFP (acceptor) light emissions, respectively. The BRET ratio was determined by calculating the ratio of the light emitted by YFP over the light emitted by the RlucII. For G protein activation, cells were serum starved, pretreated with compounds for 30 min, stimulated with 100 nM AngII for 2 min (Gαq, Gαi3, and Rho sensors) or 5 min (PKC sensor). For the kinetics of GTPase and PI3K/Akt activation, cells were serum starved, pretreated with 21 (50 µM) or Wortmannin (200 nM) for 30 min, stimulated with ligand (100 nM AngII or 100 ng/ml EGF) and BRET signals were monitored at indicated times. […]
In general terms: In BRET a luciferase serves as donor, and the signal depends on an acceptor being close.

In data set [2] the test system is K-Ras Y32A, Y40A, Y32A/Y40A. The data set is described as above. The data set is classed as cell-based, human. Conditions: 50 μM.
Description: as §1, §2

The target of data set [3] is T2, K-Ras Y32A, Y40A, Y32A/Y40A (Homo sapiens, UniProt P01116, Y32A/Y40A).
T2 construct: expressed in transfected cells; host or cells: HEK293SL
The data set is described as above. Conditions: Rasarfin 50 μM, K-Ras Y32A/Y40A, Bonferroni's multiple comparisons test. It counts as cell-based.
Description: as §1, §2

In data set [4] the target is T3, K-Ras Y32A, Y40A, Y32A/Y40A (Homo sapiens, UniProt P01116, Y32A).
T3 construct: expressed in transfected cells; host or cells: HEK293SL
The data set is described as above. The data set is classed as cell-based. Conditions: Rasarfin 50 μM, K-Ras Y32A.
Description: as §1, §2

[5] abbreviates: Bonferroni's multiple comparisons test.

Values joined by “and” are separate entries in the source; they are usually repeats but may differ in a detail not shown here. Identical values can stand only once.

As to `CC(C)C(=O)N1CCN(c2ccc(NC(=O)c3cc4ccccc4o3)cc2Cl)CC1` [Compound 21], in the data set on A549 cells (10 µM of Rasarfin), the “A549 cell viability (MTT), compared with MDA-MB-231 cells” value is reported as “more important cell viability effects”. For the same compound, the “cell viability (MTT signal)” value is 0.2876 and 0.2844 and 0.2473 and 0.4073 and 0.3734 and 0.2713 in the data set with A549 cells (Rasarfin 0.5, 24h); 0.2899 and 0.2749 and 0.2483 and 0.4128 and 0.3694 and 0.3709 in the data set on A549 cells (Rasarfin 1, 24h); 0.2852 and 0.2865 and 0.2518 and 0.3946 and 0.3796 and 0.386 in the data set with A549 cells (Rasarfin 2, 24h); 0.2638 and 0.2592 and 0.2504 and 0.3187 and 0.2743 and 0.3116 with A549 cells (Rasarfin 5, 24h); 0.2447 and 0.2619 and 0.2276 and 0.2701 and 0.2102 and 0.246 in the data set with A549 cells (Rasarfin 10, 24h); 0.3944 and 0.2496 and 0.4081 and 0.2999 and 0.3697 and 0.3945 in the data set with A549 cells (Rasarfin 10, 72h). Further, the “AngII-promoted BRET” value in data set [1] is 0.072 and 0.05667 and 0.08167 and 0.04433; in data set [4], 0.1037 and 0.088 and 0.0995 and 0.056. Besides, the results for the “AngII-promoted BRET, Mean Diff. DMSO - Rasarfin” value in data set [1] (setting [5]), in data set [3] and in data set [4] (setting [5]) were 0.011, 0.004167 and 0.006083, respectively. Further, the “AngII-mediated activation of K-Ras Y32A, Y40A, Y32A/Y40A mutants (Ras BRET sensor)” value in data set [2] is reported as “only WT was significantly inhibited by Rasarfin”.
